Experimental findings from US20070219186A1, “Pyrazolo[1,5-A]pyrimidine derivatives and methods of use thereof” (priority 2006, published 2007) are described below.

pIC50: −log10 of the molar value. A value given as a limit tells only on which side of the number the result lay.

The assay deals with T1, human B-Raf (Homo sapiens, UniProt P15056).
T1 construct: Flag; GST; made in house; host or cells: Sf9 insect cells (B-Raf); E. coli (MEK1-GST)
Nature of the assay: B-Raf Kinase to MEK1 ELISA. The note with it: for pIC50: median, cpd concentrations from 10 μM to 30 nM in half log dilutions, read-out: Median IC50; for inhibition at 10 µM: read-out: % Inhib./10 uM; for % Inhib./10 uM: single point assay. Format: biochemical. The source says:
TITLE: B-Raf Kinase to MEK1 ELISA
PURPOSE: To discover B-Raf Kinase inhibitors that can inhibit growth of tumor cells which contain oncogenic forms of Receptor Tyrosine Kinases or K-Ras, or B-Raf kinase.
Reagents: Flag/GST-tagged recombinant human B-Raf produced in Sf9 insect cells, human non-active Mek-1-GST (recombinant protein produced in E. coli); and a phospho-MEK1 specific poly-clonal Ab from Cell Signaling Technology (cat. #9121).
B-Raf1 Kinase Assay Procedure:
B-Raf-1 is used to phosphorylate GST-MEK1. MEK1 phosphorylation is measured by a phospho-specific antibody (from Cell Signaling Technology, cat. #9121) that detects phosphorylation of two serine residues at positions 217 and 221 on MEK1.
B-Raf Assay Stock Solutions:
1. Assay Dilution Buffer (ADB): 20 mM MOPS, pH 7.2, 25 mM β-glycerol phosphate, 5 mM EGTA, 1 mM sodium orthovanadate, 1 mM dithiothreitol.
2. Magnesium/ATP Cocktail: 200 μM cold ATP and 40 mM magnesium chloride in ADB.
3. Active Kinase: Active B-Raf: used at ˜20 ng per assay point.
4. Non-active GST-MEK1: Use at 100 nM (50 nM final).
6. Anti-GST Ab (Pharmacia)
7. Anti-rabbit Ab/Europium conjugate (Wallac)
1. Add 25 μl of ADB containing B-Raf and Mek per assay (i.e. per well of a 96 well plate)
2. Add 25 μl of 0.2 mM ATP and 40 mM magnesium chloride in ADB.
3. Incubate for 60 minutes at RT in a shaking incubator.
4. Transfer this mixture to an anti-GST Ab coated 96 well plate (Nunc Immunosorb plates coated o/n with a-GST.
5. Incubate for 60 minutes at 30° C. in a shaking incubator
6. Wash 3× with TBST, add Anti-Phospho MEK1 (1:1000)
7. Incubate for 60 minutes at 30° C. in a shaking incubator
8. Wash 3× with TBST, add Anti-rabbit Ab/Europium conjugate (Wallac) (1:500)
9. Incubate for 60 minutes at 30° C. in a shaking incubator
10. Add 100 ul of Wallac Delfia Enhancement Solution and shake for 10 minutes.
11. Read plates in Wallac Victor model Plate Reader.
12. Collect data analyze in Excel for single point and IC50 determinations.
Typically Raf-1 assay is run at cpd concentrations from 10 μM to 30 nM in half log dilutions. (% inhibition is determined for each cpd concentration)
A general note: In an ELISA, binding on a coated surface is turned into a signal by an enzyme label.

T1 sequence (P15056 whole entry): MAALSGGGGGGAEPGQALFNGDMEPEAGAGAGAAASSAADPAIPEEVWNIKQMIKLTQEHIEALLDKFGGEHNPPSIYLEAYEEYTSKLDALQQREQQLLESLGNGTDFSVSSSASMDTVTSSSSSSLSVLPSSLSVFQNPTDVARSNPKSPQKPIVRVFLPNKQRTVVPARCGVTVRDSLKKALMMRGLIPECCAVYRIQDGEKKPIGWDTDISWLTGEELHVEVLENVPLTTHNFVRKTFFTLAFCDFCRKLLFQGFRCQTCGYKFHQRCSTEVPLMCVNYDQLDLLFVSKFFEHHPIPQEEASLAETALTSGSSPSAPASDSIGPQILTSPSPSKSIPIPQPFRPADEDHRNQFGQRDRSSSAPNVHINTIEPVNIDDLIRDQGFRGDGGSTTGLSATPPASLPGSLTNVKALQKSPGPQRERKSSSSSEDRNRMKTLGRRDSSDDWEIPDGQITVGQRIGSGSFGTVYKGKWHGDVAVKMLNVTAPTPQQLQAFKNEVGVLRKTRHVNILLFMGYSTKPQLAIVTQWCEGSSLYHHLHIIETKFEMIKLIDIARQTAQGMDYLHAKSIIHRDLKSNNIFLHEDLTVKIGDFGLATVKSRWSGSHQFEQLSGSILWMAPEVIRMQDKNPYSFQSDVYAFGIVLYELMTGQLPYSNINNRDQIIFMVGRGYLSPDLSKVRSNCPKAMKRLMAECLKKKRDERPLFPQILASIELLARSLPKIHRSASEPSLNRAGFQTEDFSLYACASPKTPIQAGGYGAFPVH

The pIC50 is the IC50 on a negative log10 scale, so that one unit is a factor of ten. Take `CCOC(=O)c1cnn2c(-c3cccc(NC(=O)c4cc(C(C)(C)C)nn4C)c3)ccnc12` [Example 243, ethyl7-(3-{[(3-tert-butyl-1-methyl-1H-pyrazol-5-yl)carbonyl]amino}phenyl)pyrazolo[1,5-a]pyrimidine-3-carboxylate]: the pIC50 was under 5.00 and the inhibition at 10 µM is 18%.
As to `CCOC(=O)c1cnn2c(-c3cccc(NC(=O)CC(C)CC(C)(C)C)c3)ccnc12` (centres unmarked) [Example 226, ethyl7-{3-[(3,5,5-trimethylhexanoyl)amino]phenyl}pyrazolo[1,5-a]pyrimidine-3-carboxylate], the pIC50 is under 5.00 and the inhibition at 10 µM amounted to 43%.
For the compound `CCOC(=O)c1cnn2c(-c3cccc(NC(=O)c4cc(Cl)cc(Cl)c4)c3)ccnc12` [Example 72, ethyl 7-{3-[(3,5-dichlorobenzoyl)amino]phenyl}pyrazolo[1,5-a]pyrimidine-3-carboxylate], the pIC50 is under 5.00 and the inhibition at 10 µM stood at 4%.
The matching figures for `O=C(Nc1cccc(-c2ccnc3cc(-c4ccncc4)nn23)c1)c1nccc2ccccc12` [Example 237, N-[3-(2-pyridin-4-ylpyrazolo[1,5-a]pyrimidin-7-yl)phenyl]isoquinoline-1-carboxamide]: under 5.00 and 44%.
The matching figures for `CN(C)CCNC(=O)c1cnn2c(-c3cccc(NC(=O)c4cccc(C(F)(F)F)c4)c3)ccnc12` [Example 49, N-[2-(dimethylamino)ethyl]-7-(3-{[3-(trifluoromethyl)benzoyl]amino}phenyl)pyrazolo[1,5-a]pyrimidine-3-carboxamide]: 5.23 and 62%.
As for “ethyl 7-{3-[(pyridin-3-ylcarbonyl)amino]phenyl}pyrazolo[1,5-a]pyrimidine-3-carboxylate [Example 204]”, the pIC50 was under 5.00 and the “% Inhib./10 uM” value is recorded as 12%.
`CCOC(=O)c1cnn2c(-c3cccc(NC(=O)Cc4cccc(OC)c4)c3)ccnc12` [Example 96, ethyl 7-(3-{[(3-methoxyphenyl)acetyl]amino}phenyl)pyrazolo[1,5-a]pyrimidine-3-carboxylate]: the pIC50 was under 5.00 and the inhibition at 10 µM worked out at 0%.
As to `O=C(Nc1cccc(-c2ccnc3ccnn23)c1)c1cccc(C(F)(F)F)c1` [Example 153, N-(3-pyrazolo[1,5-a]pyrimidin-7-ylphenyl)-3-(trifluoromethyl)benzamide], the pIC50 is under 5.00 and the inhibition at 10 µM turned out to be 31%.
The matching figures for `O=C(Nc1cccc(-c2ccnc3c(-c4cccnc4)cnn23)c1)Nc1cccc(C(F)(F)F)c1` [Example 173, N-[3-(3-pyridin-3-ylpyrazolo[1,5-a]pyrimidin-7-yl)phenyl]-N′-[3-(trifluoromethyl)phenyl]urea]: 6.36 and 85%.
In the same order, the values of `CCOC(=O)c1cnn2c(-c3cccc(NC(=O)c4cc5ccccc5n4C)c3)ccnc12` [Example 219, ethyl 7-(3-{[(1-methyl-1H-indol-2-yl)carbonyl]amino}phenyl)pyrazolo[1,5-a]pyrimidine-3-carboxylate] are under 5.00 and 12%.
The matching figures for `CN(C)Cc1cccc(-c2cnn3c(-c4cccc(NC(=O)c5cccc(C(F)(F)F)c5)c4)ccnc23)c1` [Example 273, N-[3-(3-{3-[(dimethylamino)methyl]phenyl}pyrazolo[1,5-a]pyrimidin-7-yl)phenyl]-3-(trifluoromethyl)benzamide]: 7.36 and 97%.
For `CCOC(=O)c1cnn2c(-c3cccc(NC(=O)Nc4ccc(Br)c(Cl)c4)c3)ccnc12` [Example 83, ethyl 7-[3-({[(4-bromo-3-chlorophenyl)amino]carbonyl}amino)phenyl]pyrazolo[1,5-a]pyrimidine-3-carboxylate], the pIC50 was 6.22 and the inhibition at 10 µM was determined as 71%.
The matching figures for `CCOC(=O)c1cnn2c(-c3cccc(NC(=O)Nc4ccc(Cl)cc4Cl)c3)ccnc12` [Example 14, ethyl 7-[3-({[(2,4-dichlorophenyl)amino]carbonyl}amino)phenyl]pyrazolo[1,5-a]pyrimidine-3-carboxylate]: under 5.00 and 0%.
In the same order, the values of `O=C(Nc1ccc(F)c(-c2ccnc3ccnn23)c1)c1cccc(C(F)(F)F)c1` [Example 318, N-(4-fluoro-3-pyrazolo[1,5-a]pyrimidin-7-ylphenyl)-3-(trifluoromethyl)benzamide] are 5.45 and 59%.
In the same order, the values of `O=C(Nc1cccc(-c2ccnc3c(Br)cnn23)c1)c1ccc(Cl)c(Cl)c1` [Example 165, N-[3-(3-bromopyrazolo[1,5-a]pyrimidin-7-yl)phenyl]-3,4-dichlorobenzamide] are under 5.00 and 64%.
Turning to `CCOC(=O)c1cnn2c(-c3cccc(NC(=O)c4cc(Cl)ccc4C)c3)ccnc12` [Example 74, ethyl 7-{3-[(5-chloro-2-methylbenzoyl)amino]phenyl}pyrazolo[1,5-a]pyrimidine-3-carboxylate], the pIC50 was under 5.00 and the inhibition at 10 µM was 10%.
As to “ethyl 7-{3-[({[(ethoxycarbonyl)phenyl]amino}carbonyl)amino]phenyl}pyrazolo[1,5-a]pyrimidine-3-carboxylate [Example 15]”, the pIC50 was under 5.00 and the “% Inhib./10 uM” value was found to be 0%.
For `O=C(Nc1cccc(-c2ccnc3c(-c4ccc(Cl)cc4)cnn23)c1)c1cccc(C(F)(F)F)c1` [Example 158, N-{3-[3-(4-chlorophenyl)pyrazolo[1,5-a]pyrimidin-7-yl]phenyl}-3-(trifluoromethyl)benzamide], the pIC50 is under 5.00 and the inhibition at 10 µM worked out at 39%.
For the compound `CCOC(=O)c1cnn2c(-c3cccc(NC(=O)c4ccc(OC)c(C(F)(F)F)c4)c3)ccnc12` [Example 30, ethyl 7-(3-{[4-methoxy-3-(trifluoromethyl)benzoyl]amino}phenyl)pyrazolo[1,5-a]pyrimidine-3-carboxylate], the pIC50 was 5.89 and the inhibition at 10 µM is 75%.
The matching figures for `CCOC(=O)c1cnn2c(-c3cccc(NC(=O)Nc4cccc(C(F)(F)F)c4)c3)ccnc12` [Example 33, ethyl 7-{3-[({[3-(trifluoromethyl)phenyl]amino}carbonyl)amino]phenyl}pyrazolo[1,5-a]pyrimidine-3-carboxylate]: 6.17 and 80%.
As for `CN(CCN)c1cc(-c2cc3nccc(-c4cccc(NC(=O)c5cccc(C(F)(F)F)c5)c4)n3n2)ccn1` [Example 270, N-[3-(2-{2-[(2-aminoethyl)(methyl)amino]pyridin-4-yl}pyrazolo[1,5-a]pyrimidin-7-yl)phenyl]-3-(trifluoromethyl)benzamide], the pIC50 was 5.69 and the inhibition at 10 µM was 80%.
Take `CCOC(=O)c1cnn2c(-c3ccc(Cl)c(NC(=O)c4ccc(C)c(C(F)(F)F)c4)c3)ccnc12` [Example 106, ethyl 7-(4-chloro-3-{[4-methyl-3-(trifluoromethyl)benzoyl]amino}phenyl)pyrazolo[1,5-a]pyrimidine-3-carboxylate]: the pIC50 is under 5.00 and the inhibition at 10 µM is 2%.
The matching figures for `O=C(Nc1cccc(-c2ccnc3cc(N4CCOCC4)nn23)c1)Nc1ccc(Cl)c(C(F)(F)F)c1` [Example 200, N-[4-chloro-3-(trifluoromethyl)phenyl]-N′-[3-(2-morpholin-4-ylpyrazolo[1,5-a]pyrimidin-7-yl)phenyl]urea]: 6.70 and 94%.
The matching figures for `CCOC(=O)c1cnn2c(-c3cccc(NC(=O)Nc4ccc(C(C)C)cc4)c3)ccnc12` [Example 20, ethyl 7-[3-({[(4-isopropylphenyl)amino]carbonyl}amino)phenyl]pyrazolo[1,5-a]pyrimidine-3-carboxylate]: under 5.00 and 30%.
In the same order, the values of `CCOC(=O)c1cnn2c(-c3cccc(NC(=O)Nc4ccc(C(F)(F)F)cc4)c3)ccnc12` [Example 35, ethyl 7-{3-[({[4-(trifluoromethyl)phenyl]amino}carbonyl)amino]phenyl}pyrazolo[1,5-a]pyrimidine-3-carboxylate] are 5.51 and 71%.
